# Results as given in patent publication US9890152B2 (Genentech, Inc., priority 2012, dated 2018).
# Target: T1, EGFR del746-750 T790M (Homo sapiens, UniProt P00533, DEL746-750/T790M)
# T1 construct: purchased Carna Biosciences 08-528
# Experiment: EGFR del746-750 T790M biochemical assay (Caliper mobility shift)
# Settings: 5 μM ATP, 30 min, room temperature; apparent Ki (Morrison) converted by Cheng-Prusoff, Km of ATP 2.1 μM; read-out: EGFR(T790M/d746-750) Ki
# T1 sequence (P00533 with tags, fused parts or gaps DEL746-750/T790M limits assumed): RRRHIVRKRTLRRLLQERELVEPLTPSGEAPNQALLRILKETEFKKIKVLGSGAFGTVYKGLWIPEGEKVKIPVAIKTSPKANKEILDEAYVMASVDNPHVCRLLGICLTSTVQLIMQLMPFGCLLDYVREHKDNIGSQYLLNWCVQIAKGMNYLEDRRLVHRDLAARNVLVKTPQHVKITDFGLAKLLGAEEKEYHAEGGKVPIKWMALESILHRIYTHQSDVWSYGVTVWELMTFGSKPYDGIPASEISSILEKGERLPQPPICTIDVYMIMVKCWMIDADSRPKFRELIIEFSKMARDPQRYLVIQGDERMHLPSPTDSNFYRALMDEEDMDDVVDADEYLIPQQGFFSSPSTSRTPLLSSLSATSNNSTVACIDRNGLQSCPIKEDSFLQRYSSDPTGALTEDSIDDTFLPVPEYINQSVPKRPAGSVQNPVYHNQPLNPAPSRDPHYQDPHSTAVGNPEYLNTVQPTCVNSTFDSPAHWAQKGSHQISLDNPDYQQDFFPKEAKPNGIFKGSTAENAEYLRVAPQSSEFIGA
row,Ki [nM],SMILES
1,5.39,"CCC(C)n1cc(C(=O)NC2CCOCC2)c2cnc(Nc3ccnc(N4CCC(O)C(C)(C)C4)n3)cc21 (mixture of isomers) [Example 384, 1-(sec-butyl)-6-((2-(4-hydroxy-3,3-dimethylpiperidin-1-yl)pyrimidin-4-yl)amino)-N-(tetrahydro-2H-pyran-4-yl)-1H-pyrrolo[3,2-c]pyridine-3-carboxamide]"
2,4.03,"CCC(C)n1cc(C(=O)NC2CCN(C3COC3)CC2)c2cnc(Nc3ccnc(N4CC[C@H](O)[C@H](F)C4)n3)cc21 (mixture of isomers) [Example 389, 1-(sec-butyl)-6-((2-((3R,4S)-3-fluoro-4-hydroxypiperidin-1-yl)pyrimidin-4-yl)amino)-N-(1-(oxetan-3-yl)piperidin-4-yl)-1H-pyrrolo[3,2-c]pyridine-3-carboxamide]"
3,4.01,"CCC(C)n1cc(C(=O)N[C@H]2CCOC[C@H]2F)c2cnc(Nc3ccnc(N4CC[C@@H](O)[C@@H](F)C4)n3)cc21 (mixture of isomers) [Example 637, 1-(sec-butyl)-6-((2-((3S,4R)-3-fluoro-4-hydroxypiperidin-1-yl)pyrimidin-4-yl)amino)-N-((3SR, 4SR)-3-fluorotetrahydro-2H-pyran-4-yl)-1H-pyrrolo[3,2-c]pyridine-3-carboxamide]"
4,4.02,"CCC(C)n1cc(N2CCCC2=O)c2cnc(Nc3ccnc(N4CC[C@@H](O)[C@@H](F)C4)n3)cc21 (mixture of isomers) [Example 641, 1-(1-(sec-butyl)-6-((2-((3S,4R)-3-fluoro-4-hydroxypiperidin-1-yl)pyrimidin-4-yl)amino)-1H-pyrrolo[3,2-c]pyridin-3-yl)pyrrolidin-2-one]"
5,40,"COC1CCN(c2nccc(Nc3cc4c(cn3)nc([C@@H](C)O)n4[C@H](C)C(F)(F)F)n2)CC1F (mixture of isomers) [Example 297, (R)-1-[6-[2-(cis-3-Fluoro-4-methoxypiperidin-1-yl)pyrimidin-4-ylamino]-1-((R)-2,2,2-trifluoro-1-methylethyl)-1H-imidazo[4,5-c]pyridin-2-yl]ethanol]"
6,1.16,"CCC(C)n1cc(C(=O)NC2CCN(C3COC3)CC2)c2cnc(Nc3ccnc(-c4cnn(S(=O)(=O)C5CC5)c4)n3)cc21 (racemic) [Example 371, (±)-1-(sec-butyl)-6-((2-(1-(cyclopropylsulfonyl)-1H-pyrazol-4-yl)pyrimidin-4-yl)amino-N-(1-(oxetan-3-yl)piperidin-4-yl)-1H-pyrrolo[3,2-c]pyridine-3-carboxamide]"
7,1.08,"CC(C)n1cc(C(=O)N[C@@H]2CCN(C3COC3)C[C@@H]2F)c2cnc(Nc3ccnc(-c4cnn(S(=O)(=O)C5CC5)c4)n3)cc21 (racemic) [Example 372, (±)-6-((2-(1-(cyclopropylsulfonyl)-1H-pyrazol-4-yl)pyrimidin-4-yl)amino)-N-((cis)-3-fluoro-1-(oxetan-3-yl)piperidin-4-yl)-1-isopropyl-1H-pyrrolo[3,2-c]pyridine-3-carboxamide]"
8,6.47,"CC(C)n1cc(C(=O)NC2CCOCC2)c2cnc(Nc3ccnc(N4CCC(O)C(C)(C)C4)n3)cc21 (racemic) [Example 385, (±)-6-((2-(4-hydroxy-3,3-dimethylpiperidin-1-yl)pyrimidin-4-yl)amino)-l-isopropyl-N-(tetrahydro-2H-pyran-4-yl)-1H-pyrrolo[3,2-c] pyridine-3-carboxamide]"
9,42.8,"Cc1nc2cnc(Nc3ccnc(N4CC[C@H](O)[C@H](F)C4)n3)cc2n1C(C)C (racemic) [Example 505, (±)-3-Fluoro-1-(4-((1-isopropyl-2-methyl-1H-imidazo [4,5-c]pyridin-6-yl)amino)pyrimidin-2-yl)piperidin-4-ol]"
10,21.6,"Cc1nc2cnc(Nc3ccnc(N4CCC(O)C(F)(F)C4)n3)cc2n1C(C)C (racemic) [Example 507, (±)-3,3-Difluoro-1-(4-((1-isopropyl-2-methyl-1H-imidazo[4,5-c]pyridin-6-yl)amino)pyrimidin-2-yl)piperidin-4-ol]"
